# Results taken from paper PMC4821887, “Identification of chemicals that mimic transcriptional changes associated with autism, brain aging and neurodegeneration” (Nature Communications, 2016).
# System: mouse cortical cultures
# Test: RNA-seq differential expression (DESeq) against matched vehicle
# Assay type: cell-based
# Set-up: key to MeanFenamidone Bcl11b / MeanFenamidone Slc12a4 / MeanFenamidone Abca1 / MeanFenamidone Hmox1 / MeanFenamidone Il1rap / MeanFenamidone Cyba / MeanFenamidone Narf / MeanFenamidone Bnip3 / MeanFenamidone Amotl2 / MeanFenamidone Gad2 / MeanFenamidone Vsnl1 / MeanFenamidone Fam178a: DESeq mean of counts over RefSeq exons
# Method: Figure 4 Cluster 2 chemicals alter expression of a common set of genes. […] RNA-seq was performed in quadruplicate after treating cortical cultures with fenamidone (10 μM) or pyraclostrobin (0.1 μM) for 24 h (n=3 biological replicates) and compared with matched vehicle controls using DESeq to detect differentially expressed genes, listed in Supplementary Data 4.
# Cultures were treated with the non-cytotoxic dose of each chemical, by exchanging half of the original medium with chemicals at 2 × concentration in prewarmed feeding medium, on DIV 7 for 24 h in 12-well plates at a density of 5 × 10^5 cells per well. RNA was isolated using RNeasy plus mini kit (Cat. #74134, Qiagen). […]. Samples were further assessed for quality using either an Agilent Bioanalyzer 2100 or TapeStation 2200 to obtain a RIN. RIN values exceeding 7 were used for sequencing. RNA samples were used to generate and barcode complementary DNA libraries using the TruSeq RNA Library Preparation Kit at the UNC High Throughput Sequencing Facility. Pools of 24 multiplexed samples were sequenced per lane on an Illumina HiSeq 2500 using 50-bp paired-end reads.
# RNA-seq reads were filtered using TagDust and aligned to the reference mouse genome (mm9) with TopHat using default parameters. Reads aligning to ribosomal RNA genes were removed. Transcript abundance was estimated by computing Reads per kilobase per million mapped reads (RPKM) using RefSeq gene models aggregated by gene symbol. For differential expression analyses, raw counts over RefSeq exons were used, and then were compared across samples using DESeq[62].
smiles,measurement,setting,value
CSC1=N[C@@](C)(c2ccccc2)C(=O)N1Nc1ccccc1 [fenamidone],MeanFenamidone Kirrel,"gene Kirrel, DESeq mean, 4 reps",376.176
same,log2FoldChange Kirrel,"gene Kirrel, vs vehicle, 4 reps",1.966
same,MeanFenamidone Klf3,"gene Klf3, DESeq mean, 4 reps",165.964
same,log2FoldChange Klf3,"gene Klf3, vs vehicle, 4 reps",1.6001
same,MeanFenamidone Lama5,"gene Lama5, DESeq mean, 4 reps",696.831
same,log2FoldChange Lama5,"gene Lama5, vs vehicle, 4 reps",3.008
same,MeanFenamidone Lamc1,"gene Lamc1, DESeq mean, 4 reps",1262.75
same,log2FoldChange Lamc1,"gene Lamc1, vs vehicle, 4 reps",1.942
same,MeanFenamidone Lats2,"gene Lats2, DESeq mean, 4 reps",789.339
same,log2FoldChange Lats2,"gene Lats2, vs vehicle, 4 reps",2.05
same,MeanFenamidone,gene Lgals1,315.526
same,log2FoldChange,gene Lgals1,2.643
same,MeanFenamidone Lgals3,"gene Lgals3, DESeq mean, 4 reps",148.009
same,log2FoldChange Lgals3,"gene Lgals3, vs vehicle, 4 reps",3.47
same,MeanFenamidone Lhfp,"gene Lhfp, DESeq mean, 4 reps",460.237
same,log2FoldChange Lhfp,"gene Lhfp, vs vehicle, 4 reps",1.564
same,MeanFenamidone,gene Lhx6,36.2637
same,log2FoldChange,gene Lhx6,-1.466
same,MeanFenamidone Lif,"gene Lif, DESeq mean, 4 reps",71.2282
same,log2FoldChange Lif,"gene Lif, vs vehicle, 4 reps",2.278
same,MeanFenamidone Lima1,"gene Lima1, DESeq mean, 4 reps",304.711
same,log2FoldChange Lima1,"gene Lima1, vs vehicle, 4 reps",2.122
same,MeanFenamidone Lipa,"gene Lipa, DESeq mean, 4 reps",195.186
same,log2FoldChange Lipa,"gene Lipa, vs vehicle, 4 reps",1.701
same,MeanFenamidone,gene Lpp,386.544
same,log2FoldChange,gene Lpp,2.227
same,MeanFenamidone,gene Lrig1,287.461
same,log2FoldChange,gene Lrig1,1.313
same,MeanFenamidone Lrp2,"gene Lrp2, DESeq mean, 4 reps",218.41
same,log2FoldChange Lrp2,"gene Lrp2, vs vehicle, 4 reps",3.259
same,MeanFenamidone Lrp5,"gene Lrp5, DESeq mean, 4 reps",104.9
same,log2FoldChange Lrp5,"gene Lrp5, vs vehicle, 4 reps",2.141
same,MeanFenamidone Lrrk1,"gene Lrrk1, DESeq mean, 4 reps",150.568
same,log2FoldChange Lrrk1,"gene Lrrk1, vs vehicle, 4 reps",2.538
same,MeanFenamidone Lrrk2,"gene Lrrk2, DESeq mean, 4 reps",55.3056
same,log2FoldChange Lrrk2,"gene Lrrk2, vs vehicle, 4 reps",2.7898
same,MeanFenamidone Lsm11,"gene Lsm11, DESeq mean, 4 reps",253.873
same,log2FoldChange Lsm11,"gene Lsm11, vs vehicle, 4 reps",-1.609
same,MeanFenamidone Lzts1,"gene Lzts1, DESeq mean, 4 reps",28.4823
same,log2FoldChange Lzts1,"gene Lzts1, vs vehicle, 4 reps",-2.067
same,MeanFenamidone Maff,"gene Maff, DESeq mean, 4 reps",142.888
same,log2FoldChange Maff,"gene Maff, vs vehicle, 4 reps",2.5091
same,MeanFenamidone,gene Man2b1,147.398
same,log2FoldChange,gene Man2b1,1.707
same,MeanFenamidone,gene Map9,691.478
same,log2FoldChange,gene Map9,-1.0525
same,MeanFenamidone Mapkapk3,"gene Mapkapk3, DESeq mean, 4 reps",109.426
same,log2FoldChange Mapkapk3,"gene Mapkapk3, vs vehicle, 4 reps",2.329
same,MeanFenamidone Mdk,"gene Mdk, DESeq mean, 4 reps",140.699
same,log2FoldChange Mdk,"gene Mdk, vs vehicle, 4 reps",2.08
same,MeanFenamidone,gene Mdm2,455.963
same,log2FoldChange,gene Mdm2,1.1
same,MeanFenamidone Mllt11,"gene Mllt11, DESeq mean, 4 reps",1306.3
same,log2FoldChange Mllt11,"gene Mllt11, vs vehicle, 4 reps",-1.396
same,MeanFenamidone Mpp6,"gene Mpp6, DESeq mean, 4 reps",437.651
same,log2FoldChange Mpp6,"gene Mpp6, vs vehicle, 4 reps",1.381
same,MeanFenamidone Msn,"gene Msn, DESeq mean, 4 reps",1825.06
same,log2FoldChange Msn,"gene Msn, vs vehicle, 4 reps",2.348
same,MeanFenamidone Mturn,"gene Mturn, DESeq mean, 4 reps",252.358
same,log2FoldChange Mturn,"gene Mturn, vs vehicle, 4 reps",-1.427
same,MeanFenamidone Myh9,"gene Myh9, DESeq mean, 4 reps",944.67
same,log2FoldChange Myh9,"gene Myh9, vs vehicle, 4 reps",2.571
same,MeanFenamidone,gene Myl9,343.782
same,log2FoldChange,gene Myl9,2.6473
same,MeanFenamidone Myl12a,"gene Myl12a, DESeq mean, 4 reps",537.985
same,log2FoldChange Myl12a,"gene Myl12a, vs vehicle, 4 reps",2.298
same,MeanFenamidone,gene Myo9b,246.577
same,log2FoldChange,gene Myo9b,1.347
same,MeanFenamidone Myof,"gene Myof, DESeq mean, 4 reps",104.99
same,log2FoldChange Myof,"gene Myof, vs vehicle, 4 reps",3.761
same,MeanFenamidone Nap1l2,"gene Nap1l2, DESeq mean, 4 reps",81.273
same,log2FoldChange Nap1l2,"gene Nap1l2, vs vehicle, 4 reps",-1.959
same,MeanFenamidone Nap1l3,"gene Nap1l3, DESeq mean, 4 reps",110.395
same,log2FoldChange Nap1l3,"gene Nap1l3, vs vehicle, 4 reps",-1.464
same,MeanFenamidone Narf,"gene Narf, DESeq mean, 4 reps",102.622
same,log2FoldChange Narf,"gene Narf, vs vehicle, 4 reps",-2.14
same,MeanFenamidone,gene Ndrg4,999.172
same,log2FoldChange,gene Ndrg4,-1.28
same,MeanFenamidone Nefl,"gene Nefl, DESeq mean, 4 reps",284.238
same,log2FoldChange Nefl,"gene Nefl, vs vehicle, 4 reps",-1.45
same,MeanFenamidone,gene Neurl1a,95.3821
same,log2FoldChange,gene Neurl1a,-1.321
same,MeanFenamidone Notch1,"gene Notch1, DESeq mean, 4 reps",316.63
same,log2FoldChange Notch1,"gene Notch1, vs vehicle, 4 reps",1.887
same,MeanFenamidone Notch3,"gene Notch3, DESeq mean, 4 reps",258.391
same,log2FoldChange Notch3,"gene Notch3, vs vehicle, 4 reps",2.018
same,MeanFenamidone Npnt,"gene Npnt, DESeq mean, 4 reps",335.437
same,log2FoldChange Npnt,"gene Npnt, vs vehicle, 4 reps",1.337
same,MeanFenamidone,gene Npr2,171.686
same,log2FoldChange,gene Npr2,1.617
same,MeanFenamidone,gene Nrep,2228.26
same,log2FoldChange,gene Nrep,-1.081
same,MeanFenamidone,gene Nrg1,57.9878
same,log2FoldChange,gene Nrg1,2.155
same,MeanFenamidone,gene Nrxn3,100.585
same,log2FoldChange,gene Nrxn3,-1.713
same,MeanFenamidone,gene Nsmf,509.681
same,log2FoldChange,gene Nsmf,-1.17
same,MeanFenamidone Nuak2,"gene Nuak2, DESeq mean, 4 reps",199.356
same,log2FoldChange Nuak2,"gene Nuak2, vs vehicle, 4 reps",1.954
same,MeanFenamidone,gene Nup93,78.3583
same,log2FoldChange,gene Nup93,1.518
same,MeanFenamidone Nxph1,"gene Nxph1, DESeq mean, 4 reps",23.0758
same,log2FoldChange Nxph1,"gene Nxph1, vs vehicle, 4 reps",-2.821
same,MeanFenamidone Nxph2,"gene Nxph2, DESeq mean, 4 reps",12.3649
same,log2FoldChange Nxph2,"gene Nxph2, vs vehicle, 4 reps",-2.898
same,MeanFenamidone P2ry2,"gene P2ry2, DESeq mean, 4 reps",92.6995
same,log2FoldChange P2ry2,"gene P2ry2, vs vehicle, 4 reps",2.7714
same,MeanFenamidone,gene Parp3,104.686
same,log2FoldChange,gene Parp3,1.933
same,MeanFenamidone,gene Pcdh9,219.607
same,log2FoldChange,gene Pcdh9,-1.474
same,MeanFenamidone,gene Pcdh17,217.631
same,log2FoldChange,gene Pcdh17,-1.1203
same,MeanFenamidone Pcdh19,"gene Pcdh19, DESeq mean, 4 reps",219.013
same,log2FoldChange Pcdh19,"gene Pcdh19, vs vehicle, 4 reps",-1.519
same,MeanFenamidone,gene Pcdhb9,20.2277
same,log2FoldChange,gene Pcdhb9,-1.874
same,MeanFenamidone Pcyt1b,"gene Pcyt1b, DESeq mean, 4 reps",228.459
same,log2FoldChange Pcyt1b,"gene Pcyt1b, vs vehicle, 4 reps",-1.515
same,MeanFenamidone Pdlim5,"gene Pdlim5, DESeq mean, 4 reps",799.854
same,log2FoldChange Pdlim5,"gene Pdlim5, vs vehicle, 4 reps",2.0349
same,MeanFenamidone Pgm2l1,"gene Pgm2l1, DESeq mean, 4 reps",972.539
same,log2FoldChange Pgm2l1,"gene Pgm2l1, vs vehicle, 4 reps",-1.841
same,MeanFenamidone Phlda3,"gene Phlda3, DESeq mean, 4 reps",537.092
same,log2FoldChange Phlda3,"gene Phlda3, vs vehicle, 4 reps",1.998
same,MeanFenamidone Phldb2,"gene Phldb2, DESeq mean, 4 reps",121.953
same,log2FoldChange Phldb2,"gene Phldb2, vs vehicle, 4 reps",2.252
same,MeanFenamidone,gene Phyh,85.5792
same,log2FoldChange,gene Phyh,1.618
same,MeanFenamidone Piezo1,"gene Piezo1, DESeq mean, 4 reps",449.998
same,log2FoldChange Piezo1,"gene Piezo1, vs vehicle, 4 reps",2.353
same,MeanFenamidone Plcb3,"gene Plcb3, DESeq mean, 4 reps",85.3651
same,log2FoldChange Plcb3,"gene Plcb3, vs vehicle, 4 reps",2.324
same,MeanFenamidone,gene Plec,505.373
same,log2FoldChange,gene Plec,1.462
same,MeanFenamidone Plekha7,"gene Plekha7, DESeq mean, 4 reps",128.547
same,log2FoldChange Plekha7,"gene Plekha7, vs vehicle, 4 reps",1.951
same,MeanFenamidone Plekhg2,"gene Plekhg2, DESeq mean, 4 reps",436.894
same,log2FoldChange Plekhg2,"gene Plekhg2, vs vehicle, 4 reps",2.353
same,MeanFenamidone Plxnb2,"gene Plxnb2, DESeq mean, 4 reps",1959.53
same,log2FoldChange Plxnb2,"gene Plxnb2, vs vehicle, 4 reps",1.762
same,MeanFenamidone,gene Pnma2,202.102
same,log2FoldChange,gene Pnma2,-1.217
same,MeanFenamidone,gene Ppard,113.665
same,log2FoldChange,gene Ppard,1.493
same,MeanFenamidone Ppm1e,"gene Ppm1e, DESeq mean, 4 reps",435.513
same,log2FoldChange Ppm1e,"gene Ppm1e, vs vehicle, 4 reps",-1.5474
same,MeanFenamidone Pqlc3,"gene Pqlc3, DESeq mean, 4 reps",109.637
same,log2FoldChange Pqlc3,"gene Pqlc3, vs vehicle, 4 reps",2.1113
same,MeanFenamidone Prkcg,"gene Prkcg, DESeq mean, 4 reps",26.526
same,log2FoldChange Prkcg,"gene Prkcg, vs vehicle, 4 reps",-1.929
same,MeanFenamidone,gene Prkcz,141.39
same,log2FoldChange,gene Prkcz,-1.24
same,MeanFenamidone,gene Prrt2,169.168
same,log2FoldChange,gene Prrt2,-1.281
same,MeanFenamidone,gene Prss23,845.081
